Results reported in BigSolDB 2.1.

Which results are given for `COc1c(C)c2c(c(O)c1C/C=C(\C)CCC(=O)OCCN1CCOCC1)C(=O)OC2`?
solubility (mole fraction) (in DMSO, 298.2 K): 0.023; solubility (mole fraction) (in DMSO, 303.2 K): 0.0272; solubility (mole fraction) (in DMSO, 308.2 K): 0.0328; solubility (mole fraction) (in DMSO, 313.2 K): 0.0388; solubility (mole fraction) (in DMSO, 318.2 K): 0.0439; solubility (mole fraction) (in PEG-400, 298.2 K): 0.0271; solubility (mole fraction) (in PEG-400, 303.2 K): 0.0312; solubility (mole fraction) (in PEG-400, 308.2 K): 0.0355; solubility (mole fraction) (in PEG-400, 313.2 K): 0.0399; solubility (mole fraction) (in PEG-400, 318.2 K): 0.0449; solubility (mole fraction) (in ethanol, 298.2 K): 0.00613; solubility (mole fraction) (in ethanol, 303.2 K): 0.00676; solubility (mole fraction) (in ethanol, 308.2 K): 0.00749; solubility (mole fraction) (in ethanol, 313.2 K): 0.00833; solubility (mole fraction) (in ethanol, 318.2 K): 0.00906; solubility (mole fraction) (in ethyl acetate, 298.2 K): 0.0689; solubility (mole fraction) (in ethyl acetate, 303.2 K): 0.0744; solubility (mole fraction) (in ethyl acetate, 308.2 K): 0.0802; solubility (mole fraction) (in ethyl acetate, 313.2 K): 0.0856; solubility (mole fraction) (in ethyl acetate, 318.2 K): 0.0928; solubility (mole fraction) (in ethylene glycol, 298.2 K): 0.000715; solubility (mole fraction) (in ethylene glycol, 303.2 K): 0.000858; solubility (mole fraction) (in ethylene glycol, 308.2 K): 0.00103; solubility (mole fraction) (in ethylene glycol, 313.2 K): 0.0012; solubility (mole fraction) (in ethylene glycol, 318.2 K): 0.0014; solubility (mole fraction) (in isopropanol, 298.2 K): 0.00852; solubility (mole fraction) (in isopropanol, 303.2 K): 0.00934; solubility (mole fraction) (in isopropanol, 308.2 K): 0.0102; solubility (mole fraction) (in isopropanol, 313.2 K): 0.0111; solubility (mole fraction) (in isopropanol, 318.2 K): 0.0121; solubility (mole fraction) (in n-butanol, 298.2 K): 0.0108; solubility (mole fraction) (in n-butanol, 303.2 K): 0.0119; solubility (mole fraction) (in n-butanol, 308.2 K): 0.0132; solubility (mole fraction) (in n-butanol, 313.2 K): 0.0144; solubility (mole fraction) (in n-butanol, 318.2 K): 0.0159; solubility (mole fraction) (in propylene glycol, 298.2 K): 0.00105; solubility (mole fraction) (in propylene glycol, 303.2 K): 0.00126; solubility (mole fraction) (in propylene glycol, 308.2 K): 0.00147; solubility (mole fraction) (in propylene glycol, 313.2 K): 0.00168; solubility (mole fraction) (in propylene glycol, 318.2 K): 0.00193; solubility (mole fraction) (in transcutol, 298.2 K): 0.0393; solubility (mole fraction) (in transcutol, 303.2 K): 0.0421; solubility (mole fraction) (in transcutol, 308.2 K): 0.0452; solubility (mole fraction) (in transcutol, 313.2 K): 0.0486; solubility (mole fraction) (in transcutol, 318.2 K): 0.0522; solubility (mole fraction) (in water, 298.2 K): 1.75e-06; solubility (mole fraction) (in water, 303.2 K): 2.29e-06; solubility (mole fraction) (in water, 308.2 K): 2.87e-06; solubility (mole fraction) (in water, 313.2 K): 3.49e-06; solubility (mole fraction) (in water, 318.2 K): 4.16e-06
